Measurements published in US12479858B2, “Macrocyclic compounds as sting agonists and methods and uses thereof” (Lupin Limited, priority 2019, dated 2025).
Where two headings read alike, the source gives them in different places.

Tests used:
[1] = snar bond, 15-membered ring, (E)-but-2-ene-1,4-diamine 2HCl/DIPEA
[2] = the molecule shown is the open-chain precursor; snar bond; 15-membered ring; (E)-but-2-ene-1,4-diamine 2HCl/DIPEA; EtOH/THF 3:1; 46.0 mM; 105.0 °C

Question: Which ring closure, crude yield ([1]; the molecule shown is the open-chain precursor, EtOH/THF 7:1, 156.5 mM, 110.0 °C) does the source give for `CCOC(=O)c1cc(OCC(COc2cc(C(=O)OCC)cc([N+](=O)[O-])c2Cl)N2CCOCC2)c(Cl)c([N+](=O)[O-])c1` here?
Answer: 88%

Question: With `CCOC(=O)c1cc(OCCCOc2cc(C(=O)OC(C)(C)C)cc([N+](=O)[O-])c2Cl)c(Cl)c([N+](=O)[O-])c1` as the compound, how does the ring closure, isolated yield [2] read?
Answer: 90%

Question: Which ring closure, crude yield ([1]; the molecule shown is the open-chain precursor, EtOH/THF 3:1, 99.5 mM, 120.0 °C) does the source give for `CCOC(=O)c1cc(OCCCOc2cc(C(N)=O)cc([N+](=O)[O-])c2Cl)c(Cl)c([N+](=O)[O-])c1` here?
Answer: 73%

Question: With `CCOC(=O)c1cc(OC[C@H](COc2cc(C(=O)OC(C)(C)C)cc([N+](=O)[O-])c2Cl)N2C3CCC2COC3)c(Cl)c([N+](=O)[O-])c1` as the compound, how does the ring closure, crude yield ([1]; the molecule shown is the open-chain precursor, EtOH, 121.0 mM, 105.0 °C) read?
Answer: 89.8%

Question: Which ring closure, crude yield ([1]; EtOH/THF 7.4:1, 148.0 mM, 110.0 °C) does the source give for “diethyl (E)-7-(8-oxa-3-azabicyclo[3.2.1]octan-3-yl)-1,13-dinitro-7,8,14,15,18,19-hexahydro-6H-dibenzo[b,j][1,12]dioxa[4,9]diazacyclopentadecine-3,11-dicarboxylate” here?
Answer: 88%
